Source: patent US20230146455A1, “TREATMENT OF INFLAMMATORY DISEASES WITH PEPTIDES AND PHARMACEUTICAL COMPOSITIONS” (Yuyu Pharma, Inc., priority 2020, published 2023)
Values joined by “and” are separate entries in the source; they are usually repeats but may differ in a detail not shown here. Identical values can stand only once. Where a SMILES comes first, the peptide text is derived from it. [ ]: non-standard residue; d: D form. Hyp = O=C(O)[C@@H]1C[C@@H](O)CN1

System: MMP-9
Assay: Example 8 main study Luminex, LPS hPBMCs: MMP-9
Assay type: cell-based, human
Procedure: Human PBMCs were pretreated with YY-101, YDE-011, YDE-043 or reference compound; Xiidra® at various concentration (ranging from […] to 500 nM) for 2 h before stimulation. An equal volume of 0.5% DMSO was used as a vehicle control. Then, the cells were treated with LPS at 5 ug/ml, which was selected based on the pilot study. The supernatants from treated cells were harvested at 24 h and placed in a 96 well for Luminex cytokine & chemokine profiling using a Luminex 200 multiplex assay (Luminex; R&D system, USA).
The main study arm with triplicate wells per group in a 24-well plate: • 1. Blank • 2. PBMC: 0.5% DMSO • 3. PBMC+LPS (5 ug/ml) • 4. PBMC+YY-101 500 nM • 5. PBMC+YY-101 50 nM • 6. PBMC+YY-101 5 nM • 7. PBMC+YY-101 0.5 nM • 8. PBMC+LPS (5 ug/ml)+Xiidra® 500 nM • 9. PBMC+LPS (5 ug/ml)+Xiidra® 50 nM • 10. PBMC+LPS (5 ug/ml)+Xiidra® 5 nM • 11. PBMC+LPS (5 ug/ml)+Xiidra® 0.5 nM • 12. PBMC+LPS (5 ug/ml)+Xiidra® 0.05 nM • 13. PBMC+LPS (5 ug/ml)+Xiidra® 0.005 nM • 14. PBMC+LPS (5 ug/ml)+YY-101 500 nM • 15. PBMC+LPS (5 ug/ml)+YY-101 50 nM • 16. PBMC+LPS (5 ug/ml)+YY-101 5 nM • 17. PBMC+LPS (5 ug/ml)+YY-101 0.5 nM • 18. PBMC+LPS (5 ug/ml)+YY-101 0.05 nM • 19. PBMC+LPS (5 ug/ml)+YY-101 0.005 nM • 20. PBMC+LPS (5 ug/ml)+YDE-011 500 nM • 21. PBMC+LPS (5 ug/ml)+YDE-011 50 nM • 22. PBMC+LPS (5 ug/ml)+YDE-011 5 nM • 23. PBMC+LPS (5 ug/ml)+YDE-011 0.5 nM • 24. PBMC+LPS (5 ug/ml)+YDE-011 0.05 nM • 25. PBMC+LPS (5 ug/ml)+YDE-011 0.005 nM • 26. PBMC+LPS (5 ug/ml)+YDE-043 500 nM • 27. PBMC+LPS (5 ug/ml)+YDE-043 50 nM • 28. PBMC+LPS (5 ug/ml)+YDE-043 5 nM • 29. PBMC+LPS (5 ug/ml)+YDE-043 0.5 nM • 30. PBMC+LPS (5 ug/ml)+YDE-043 0.05 nM • 31. PBMC+LPS (5 ug/ml)+YDE-043 0.005 nM
Multiplex assay was used to measure 30 cytokines and chemokines. The 1:200 diluted cell supernatant and serial dilution of the standard were dispensed into a 96 well plate at 50 ul/well. Then, the pre-mixed cocktail of antibody-coated magnetic beads was dispensed at 50 ul/well and incubated at room temperature for 2 h in a horizontal orbital microplate shaker at 800±500 rpm. The beads were washed using a magnetic device to prevent loss. The biotin-antibody was dispensed in 50 ul of each well and incubated at room temperature for 1 h in a shaker at 800±500 rpm. After washing, streptavidin-PE was added at 50 ul/well and incubated at room temperature for 30 min in a shaker under the same conditions. Finally, after washing, wash buffer (100 ul/well) was added to the plate and incubated in a shaker for 2 min. The Luminex™ 200 setting were set according to the manufacturer's protocol. The data was calculated with a standard five-parameter logistic nonlinear regression analysis of the data (xPonent software 4.2, USA). Results were presented as concentration (ng/ml or pg/ml).

[1] = PBMC + LPS(5 ug/ml), test article 0.005 nM, Mean
[2] = PBMC + LPS(5 ug/ml), test article 0.005 nM, single replicates
[3] = PBMC + LPS(5 ug/ml), test article 0.05 nM, Mean
[4] = PBMC + LPS(5 ug/ml), test article 0.05 nM, single replicates
[5] = PBMC + LPS(5 ug/ml), test article 0.5 nM, Mean
[6] = PBMC + LPS(5 ug/ml), test article 0.5 nM, single replicates
[7] = PBMC + LPS(5 ug/ml), test article 5 nM, Mean
[8] = PBMC + LPS(5 ug/ml), test article 5 nM, single replicates
[9] = PBMC + LPS(5 ug/ml), test article 50 nM, Mean
[10] = PBMC + LPS(5 ug/ml), test article 50 nM, single replicates
[11] = PBMC + LPS(5 ug/ml), test article 500 nM, Mean
[12] = PBMC + LPS(5 ug/ml), test article 500 nM, single replicates
[13] = PBMC without LPS, test article 0.5 nM, Mean
[14] = PBMC without LPS, test article 0.5 nM, single replicates (1st, 2nd)
[15] = PBMC without LPS, test article 5 nM, Mean
[16] = PBMC without LPS, test article 5 nM, single replicates (1st, 2nd)
[17] = PBMC without LPS, test article 0.05 uM, Mean
[18] = PBMC without LPS, test article 0.05 uM, single replicates (1st, 2nd)
[19] = PBMC without LPS, test article 50 nM, Mean
[20] = PBMC without LPS, test article 50 nM, single replicates (1st, 2nd)
[21] = PBMC without LPS, test article 500 nM, Mean
[22] = PBMC without LPS, test article 500 nM, single replicates (1st, 2nd)

CC(C)C[C@H](NC(=O)CNC(=O)[C@H](CC(=O)O)NC(=O)[C@H](CCC(N)=O)NC(=O)CNC(=O)[C@@H]1C[C@@H](O)CN1)C(=O)N[C@@H](C)C(=O)NCC(=O)N1CCC[C@H]1C(=O)N[C@@H](CCCCN)C(=O)O [YY-101] (H-[Hyp]GQDGLAGPK-OH; N-terminus and C-terminus assumed)
Concentration (pg/ml), MMP-9 [1]: 4617.5 pg/mL
MFI (Bead name: MMP-9) [1]: 31.0
Concentration (pg/ml), MMP-9 [2]: 3688.0 pg/mL and 4925.2 pg/mL and 5239.4 pg/mL
MFI (Bead name: MMP-9) [2]: 28.0 and 32.0 and 33.0
Concentration (pg/ml), MMP-9 [3]: 4977.8 pg/mL
MFI (Bead name: MMP-9) [3]: 32.2
Concentration (pg/ml), MMP-9 [4]: 5239.4 pg/mL and 4925.2 pg/mL and 4768.8 pg/mL
MFI (Bead name: MMP-9) [4]: 33.0 and 32.0 and 31.5
Concentration (pg/ml), MMP-9 [5]: 5239.4 pg/mL
MFI (Bead name: MMP-9) [5]: 33.0
Concentration (pg/ml), MMP-9 [6]: 5239.4 pg/mL
MFI (Bead name: MMP-9) [6]: 33.0
Concentration (pg/ml), MMP-9 [7]: 5138.2 pg/mL
MFI (Bead name: MMP-9) [7]: 32.7
Concentration (pg/ml), MMP-9 [8]: 5239.4 pg/mL and 4302.5 pg/mL and 5872.9 pg/mL
MFI (Bead name: MMP-9) [8]: 33.0 and 30.0 and 35.0
Concentration (pg/ml), MMP-9 [9]: 5239.9 pg/mL
MFI (Bead name: MMP-9) [9]: 33.0
Concentration (pg/ml), MMP-9 [10]: 5239.4 pg/mL and 4925.2 pg/mL and 5555.3 pg/mL
MFI (Bead name: MMP-9) [10]: 33.0 and 32.0 and 34.0
Concentration (pg/ml), MMP-9 [11]: 5135.8 pg/mL
MFI (Bead name: MMP-9) [11]: 32.7
Concentration (pg/ml), MMP-9 [12]: 4612.9 pg/mL and 5239.4 pg/mL and 5555.3 pg/mL
MFI (Bead name: MMP-9) [12]: 31.0 and 33.0 and 34.0
Concentration (pg/ml), MMP-9 [13]: 16511.2 pg/mL
MFI (Bead name: MMP-9) [13]: 66.5
Concentration (pg/ml), MMP-9 [14]: 12836.1 pg/mL and 20186.4 pg/mL
MFI (Bead name: MMP-9) [14]: 56.0 and 77.0
Concentration (pg/ml), MMP-9 [15]: 14148.8 pg/mL
MFI (Bead name: MMP-9) [15]: 59.8
Concentration (pg/ml), MMP-9 [16]: 16823.6 pg/mL and 11474.0 pg/mL
MFI (Bead name: MMP-9) [16]: 67.5 and 52.0
Concentration (pg/ml), MMP-9 [17]: 17040.0 pg/mL
MFI (Bead name: MMP-9) [17]: 68.0
Concentration (pg/ml), MMP-9 [18]: 20901.3 pg/mL and 13178.7 pg/mL
MFI (Bead name: MMP-9) [18]: 79.0 and 57.0
Concentration (pg/ml), MMP-9 [19]: 10636.2 pg/mL
MFI (Bead name: MMP-9) [19]: 49.5
Concentration (pg/ml), MMP-9 [20]: 11813.2 pg/mL and 9459.2 pg/mL
MFI (Bead name: MMP-9) [20]: 53.0 and 46.0
Concentration (pg/ml), MMP-9 [21]: 11140.0 pg/mL
MFI (Bead name: MMP-9) [21]: 51.0
Concentration (pg/ml), MMP-9 [22]: 10126.8 pg/mL and 12153.3 pg/mL
MFI (Bead name: MMP-9) [22]: 48.0 and 54.0

CC(C)C[C@H](NC(=O)[C@H](CCC(N)=O)NC(=O)CNC(=O)[C@@H]1C[C@@H](O)CN1)C(=O)NCC(=O)O [YDE-043] (H-[Hyp]GQLG-OH; N-terminus and C-terminus assumed)
Concentration (pg/ml), MMP-9 [1]: 5247.2 pg/mL
MFI (Bead name: MMP-9) [1]: 33.0
Concentration (pg/ml), MMP-9 [2]: 3994.2 pg/mL and 5555.3 pg/mL and 6192.0 pg/mL
MFI (Bead name: MMP-9) [2]: 29.0 and 34.0 and 36.0
Concentration (pg/ml), MMP-9 [3]: 3943.4 pg/mL
MFI (Bead name: MMP-9) [3]: 28.8
Concentration (pg/ml), MMP-9 [4]: 3994.2 pg/mL and 4148.1 pg/mL and 3688.0 pg/mL
MFI (Bead name: MMP-9) [4]: 29.0 and 29.5 and 28.0
Concentration (pg/ml), MMP-9 [5]: 3536.4 pg/mL
MFI (Bead name: MMP-9) [5]: 27.5
Concentration (pg/ml), MMP-9 [6]: 3688.0 pg/ml (2×) and 3233.2 pg/ml
MFI (Bead name: MMP-9) [6]: 28.0 (2×) and 26.5
Concentration (pg/ml), MMP-9 [7]: 3842.1 pg/mL
MFI (Bead name: MMP-9) [7]: 28.5
Concentration (pg/ml), MMP-9 [8]: 4302.5 pg/mL and 3688.0 pg/mL and 3535.8 pg/mL
MFI (Bead name: MMP-9) [8]: 30.0 and 28.0 and 27.5
Concentration (pg/ml), MMP-9 [9]: 3892.8 pg/mL
MFI (Bead name: MMP-9) [9]: 28.7
Concentration (pg/ml), MMP-9 [10]: 3688.0 pg/ml (2×) and 4302.5 pg/ml
MFI (Bead name: MMP-9) [10]: 28.0 (2×) and 30.0
Concentration (pg/ml), MMP-9 [11]: 4100.4 pg/mL
MFI (Bead name: MMP-9) [11]: 29.3
Concentration (pg/ml), MMP-9 [12]: 3688.0 pg/ml (2×) and 4925.2 pg/ml
MFI (Bead name: MMP-9) [12]: 28.0 (2×) and 32.0

CC(C)C[C@H](NC(=O)CNC(=O)[C@H](CC(C)C)NC(=O)[C@H](CCC(N)=O)NC(=O)CNC(=O)[C@@H]1C[C@@H](O)CN1)C(=O)N[C@@H](C)C(=O)NCC(=O)N1CCC[C@H]1C(=O)N[C@@H](CCCCN)C(=O)O [YDE-011] (H-[Hyp]GQLGLAGPK-OH)
Concentration (pg/ml), MMP-9 [1]: 4251.7 pg/mL
MFI (Bead name: MMP-9) [1]: 29.8
Concentration (pg/ml), MMP-9 [2]: 4148.1 pg/mL and 4612.9 pg/mL and 3994.2 pg/mL
MFI (Bead name: MMP-9) [2]: 29.5 and 31.0 and 29.0
Concentration (pg/ml), MMP-9 [3]: 4509.4 pg/mL
MFI (Bead name: MMP-9) [3]: 30.7
Concentration (pg/ml), MMP-9 [4]: 4612.9 pg/ml (2×) and 4302.5 pg/ml
MFI (Bead name: MMP-9) [4]: 31.0 (2×) and 30.0
Concentration (pg/ml), MMP-9 [5]: 3435.2 pg/mL
MFI (Bead name: MMP-9) [5]: 27.2
Concentration (pg/ml), MMP-9 [6]: 3384.2 pg/mL and 3688.0 pg/mL and 3233.2 pg/mL
MFI (Bead name: MMP-9) [6]: 27.0 and 28.0 and 26.5
Concentration (pg/ml), MMP-9 [7]: 3299.3 pg/mL
MFI (Bead name: MMP-9) [7]: 26.7
Concentration (pg/ml), MMP-9 [8]: 1907.3 pg/mL and 3688.0 pg/mL and 4302.5 pg/mL
MFI (Bead name: MMP-9) [8]: 22.0 and 28.0 and 30.0
Concentration (pg/ml), MMP-9 [9]: 2555.4 pg/mL
MFI (Bead name: MMP-9) [9]: 24.2
Concentration (pg/ml), MMP-9 [10]: 2636.1 pg/mL and 3688.0 pg/mL and 1342.1 pg/mL
MFI (Bead name: MMP-9) [10]: 24.5 and 28.0 and 20.0
Concentration (pg/ml), MMP-9 [11]: 2776.4 pg/mL
MFI (Bead name: MMP-9) [11]: 24.8
Concentration (pg/ml), MMP-9 [12]: 4612.9 pg/mL and 931.9 pg/mL and 2784.3 pg/mL
MFI (Bead name: MMP-9) [12]: 31.0 and 18.5 and 25.0
